One may read the IC50 as the concentration that inhibits the measured activity by half. A high value points to a need for much substance.

This passage reports IC50 and Activity results from ChEMBL document CHEMBL4819087, “Identification and optimization of 3-bromo-N'-(4-hydroxybenzylidene)-4-methylbenzohydrazide derivatives as mTOR inhibitors that induce autophagic cell death and apoptosis in triple-negative breast cancer” (Eur J Med Chem, 2021).

SMILES strings stand for the structures.

One test deals with MDA-MB-468. Description: cells. As to conditions: Homo sapiens, MDA-MB-468, 24 h.
Another test has as its system A549. As to the kind of experiment: cells. As to conditions: Homo sapiens, A549, 24 h.
The test system of test [1] is MDA-MB-231. As to the kind of experiment: cells. As to conditions: Homo sapiens, MDA-MB-231, 24 h.
Description: Antiproliferative activity against human MDA-MB-231 cells assessed as reduction in cell viability incubated for 24 hrs by MTT assay
Test [2] concerns the target Serine/threonine-protein kinase mTOR (Homo sapiens, UniProt P42345). As to the kind of experiment: Inhibition of mTOR (unknown origin).
Test [3] has as its system MDA-MB-231. Description: Induction of autophagy in human MDA-MB-231 cells assessed as MDC positive ratio at 1 uM incubated for 6 hrs by MDC staining based flow cytometry analysis. The format is functional. (In general: A flow cytometer gives signals particle by particle.)

Description for A549: Antiproliferative activity against human A549 cells assessed as reduction in cell viability incubated for 24 hrs by MTT assay
Description for MDA-MB-468: Antiproliferative activity against human MDA-MB-468 cells assessed as reduction in cell viability incubated for 24 hrs by MTT assay

On to `O=C(NCc1cccc(Br)c1)Nc1ccc(C(F)(F)F)cc1`, for which the IC50 with MDA-MB-468 is 24.3 µM; in the test on A549, 26.4 µM; in the test with MDA-MB-231 [1] it was 20.8 µM; in test [2], 15.8 µM. Also, in the test with MDA-MB-231 [3], the Activity stood at 9.1%.

Turning to `CC(NC(=O)Nc1cccc(Cl)c1)c1ccccc1` (stereo not given), the concentration for half-maximal inhibition (IC50) is 23.7 µM with MDA-MB-468, 24.8 µM with A549, 22.6 µM in the test with MDA-MB-231 [1] and over 30 µM in test [2]. Besides, in the test on MDA-MB-231 [3], the Activity is recorded as 9.25%.

As for `CN(Cc1ccccc1)C(=O)Nc1ccc(C(F)(F)F)cc1`, the IC50 in the test on MDA-MB-468 came out at 21.9 µM; with A549, 28.8 µM; with MDA-MB-231 [1], 21.2 µM; in test [2], 10.1 µM. In addition, the Activity with MDA-MB-231 [3] was 7.34%.
